# From patent US20240325330A1, “NEW METHOD TO TREAT ACIDOSIS RELATED DISEASES WITH ACETOACETATE” (INSTITUT NATIONAL DE LA SANTÉ ET DE LA RECHERCHE MÉDICALE, priority 2021, published 2024)
# Columns and labels:
# U937 cell line = conditions: cited from earlier work
# [1] = tested on: human monocytes differentiated into macrophages under lactic acidosis (LA-Mφ); test: Oxygen consumption rate (XF96 extracellular flux analyzer); format: cell-based; conditions: LA-Mφ+AcAc compared to LA-Mφ
# Procedure: (§1) Peripheral blood mononuclear cells (PBMC) were obtained from healthy human volunteers (Blood collection center, Angers, France; agreement ANG-2017-01) by standard density-gradient centrifugation on lymphocyte separation medium (Eurobio, Courtaboeuf, France). CD14+ monocytes were then isolated by positive magnetic cell-sorting (Miltenyi Biotec, Bergisch Gladbach, Germany). Monocytes (1×10^6 cells/mL) were cultured in complete medium (CM) consisting of RPMI 1640 (Lonza, Verviers, Belgium) supplemented with 10% fetal calf serum (FCS) (Eurobio), 2 mM L-glutamine, 1 mM sodium pyruvate, 0.1 mM non-essential amino acids, 10 mM HEPES, 100 U/mL penicillin and 100 μg/mL streptomycin (all from Lonza) in the presence of 50 ng/mL GM-CSF (R&D Systems, Minneapolis, MN). […]
# We used an XF96 extracellular flux analyzer (Agilent Technologies, Santa Clara, CA) to determine the bioenergetic profile of cells. […] Oxygen consumption rate (OCR) was recorded, to assess mitochondrial respiratory activity and glycolytic activity. OCR was recorded in basal conditions, and the cells were then treated sequentially with 2 μg/mL oligomycin, and 3 μM carbonyl cyanide p-(trifluoromethoxy) phenylhydrazone (FCCP) (both from Sigma-Aldrich). […]
# [2] = tested on: human monocyte-derived macrophages (Mφ, LA-Mφ); test: Cytokine secretion after LPS stimulation (ELISA); format: cell-based; conditions: day 5, LPS 16 h, FIG. 3
# Procedure: Peripheral blood mononuclear cells (PBMC) were obtained from healthy human volunteers (Blood collection center, Angers, France; agreement ANG-2017-01) by standard density-gradient centrifugation on lymphocyte separation medium (Eurobio, Courtaboeuf, France). CD14+ monocytes were then isolated by positive magnetic cell-sorting (Miltenyi Biotec, Bergisch Gladbach, Germany). Monocytes (1×10^6 cells/mL) were cultured in complete medium (CM) consisting of RPMI 1640 (Lonza, Verviers, Belgium) supplemented with 10% fetal calf serum (FCS) (Eurobio), 2 mM L-glutamine, 1 mM sodium pyruvate, 0.1 mM non-essential amino acids, 10 mM HEPES, 100 U/mL penicillin and 100 μg/mL streptomycin (all from Lonza) in the presence of 50 ng/mL GM-CSF (R&D Systems, Minneapolis, MN).
# Experiments were performed in the presence of 10 mM lactic acid (Sigma-Aldrich, St Louis, MO) resulting in a pHe of 6.5 to generate LA-Mφ (lactic acidosis conditioning), 12.35 mM HCl to reach a final pHe of 6.5 and to generate HCl-Mφ(acidosis conditioning), 10 mM sodium lactate (Sigma-Aldrich) to generate lactate-Mφ (lactosis conditioning, pH 7.3), in the absence or presence of 5 mM lithium acetoacetate (AcAc) (Sigma-Aldrich, St Louis, MO).
# Day 5 GM-Mϕ, GM+LA-Mϕ and GM+LA-Mϕ+AcAc were stimulated with 200 ng/mL LPS (Sigma-Aldrich). Cytokines were quantified by ELISA (R&D Systems) in the supernatants collected at 16 h.
# [3] = tested on: human monocytes differentiated into macrophages under lactic acidosis (LA-Mφ); test: Mitochondrial network architecture, morphology and size (confocal microscopy, TEM); format: cell-based; conditions: 5 mM AcAc, 10 mM lactic acid; compared with Mφ; data not shown
# Procedure: as §1
# Cells were first incubated with 150 nM MitoTracker Green (Thermo Fisher Scientific) in CM medium at 37° C. for 10 min. […] Image blobs were then analyzed with the regionprops function of Matlab.
# We fixed 5×10^6 macrophages by incubation for 16 h at 4° C. with 2.5% electron-grade glutaraldehyde (LFD Distribution, Sainte Consorce, France) in 0.1 M phosphate buffer pH 7.4. […] Stitched images were reviewed and scored by a trained electron histopathologist for the presence of autophagy and mitophagy vacuoles. Mitochondrial size was determined by measuring the maximum Feret diameter on TEM images.
structure (smiles),measurement,setting,value
"CC(=O)CC(=O)[O-].[Li+] [AcAc, lithium acetoacetate]",IL-6 and TNF production,U937 cell line,enhance IL-6 and TNF production
same,OCR consumption,[1],induced
same,combined effect of AcAc and lactic acid on capacity to produce inflammatory cytokines and trophic factors,[2]; LA-Mφ+AcAc,acted synergistically
same,cytokine phenotype of monocytes differentiated in the presence of AcAc,[2]; ELISA,TNFαhigh IL-1βhigh IL-6high OSMhigh and VEGFhigh phenotype
same,mitochondrial network architecture (morphology and size),[3],protected the mitochondrial network architecture
